Key:
Type in all cases: physicochemical
[1] = Storage of the solid salt at ambient conditions (physical stability / hygroscopicity)
From the text: One mesylate crystal form was obtained via screening. Mesylate Type A was generated via reactive crystallization (molar ratio of 1:1) in ethyl acetate/hexane (1:2, v/v) at RT.

[2] = Thermogravimetric analysis (TGA) weight loss of crystalline hits; settings: for Speculated Form: based on TGA/DSC characterization data
Method: (§1) TGA data were collected using a TA Q500 and Q550 from TA Instruments. DSC was performed using a TA Q2000 from TA Instruments. DSC was calibrated with Indium reference standard and the TGA was calibrated using nickel reference standard.
(§2) All hits were further characterized by TGA and DSC, with the stoichiometry determined by ^1H NMR or HPLC/IC. Based on the characterization data in Table 2 below, most of them were considered to be anhydrates.

[3] = Stoichiometry (acid/freebase) by 1H NMR or HPLC/IC
From the text: Solution NMR was collected on Bruker 500M NMR Spectrometer using DMSO-d6 and CD3OD as solvents.
Agilent 1100 HPLC was utilized to analyze the purity and stoichiometry, with detailed method listed in below.
IC method for counter-ion content measurement is listed below.
as §2

[4] = Differential scanning calorimetry (DSC) endotherms of crystalline hits; settings: onset temperature
Method: as §1, §2

Row | Structure (SMILES) | Storage at ambient conditions ([1]; ambient conditions) | Hygroscopicity / stability under ambient conditions, as suggested by the gel conversion ([1]; ambient conditions, inferred from conversion to gel) | Physical stability of the sample after storage at ambient conditions ([1]; solid, storage at ambient conditions) | TGA Wt. Loss (%) [2] | Speculated Form [2] | Stoichiometry (acid/base) [3] | DSC Endo. (onset, ° C.) [4] [°C]
1 | CCCCc1nc(-c2ccc(OCCCN(CC)CC)cc2)cn1-c1ccc(Oc2ccc(Cl)cc2)cc1.CS(=O)(=O)O [Mesylate Type A] | + | highly hygroscopic and unstable | converted to gel | – | – | – | –
2 | CCCCc1nc(-c2ccc(OCCCN(CC)CC)cc2)cn1-c1ccc(Oc2ccc(Cl)cc2)cc1.O=C1NS(=O)(=O)c2ccccc21 [Saccharinate Type A] | – | – | – | negligible | Anhydrate | 1.22 | 120.0
3 | CCCCc1nc(-c2ccc(OCCCN(CC)CC)cc2)cn1-c1ccc(Oc2ccc(Cl)cc2)cc1.COc1cc(C(=O)O)ccc1O [Vanillate Type A] | – | – | – | negligible | Anhydrate | 1.04 | 99.6
